From patent publication US7445765B2, “Radiopharmaceutical for diagnostic imaging containing a technetium-99m nitride heterocomplex” (Nihon Medi-Physics Co., Ltd., priority 2000, dated 2008)

Test: Biodistribution of the 99mTc(N) heterocomplexes in rats (organ uptake, heart accumulation, heart/lung and heart/liver ratios)
Type: in vivo, female Sprague-Dawley rats
Details: for Heart/liver ratio in biodistribution / Heart/lung ratio in biodistribution: rats
Procedure: The biodistribution was measured by using female Sprague-Dawley rats (SD rats) weighing 200 g to 250 g. Each of the ^99mTc(N) heterocomplexes purified in the manner described above was diluted with phosphate buffer (0.1 M, pH=7.4) to obtain a final solution having an ethanol content of 10%. After the SD rats were anesthetized with an intramuscular injection of a mixture of ketamine (80 mg/kg) and xilazine (19 mg/kg), the jugular vein of each rat was surgically exposed and 100 μL (300 to 370 kBq) of the solution containing each ^99mTc(N) heterocomplexes prepared in the manner described above was injected in the jugular vein. The rats (n=3) were sacrificed by cervical dislocation at different times post injection. The blood was withdrawn from the heart through a syringe and counted. It was assumed that the whole blood content was 6.5% of the total body weight. The organs were excised from the rats, washed with physiological saline, weighed, and counted in a NaI well counter.
For comparison, Tables 19 and 20 show the results, obtained in the same manner as above, of measuring the biodistribution of (^99mTc) (MIBI) and (^99mTc) (Tf) which have been used as pharmaceuticals for diagnostic imaging for blood flow in myocardium.
Tables 21 to 23 show data showing the variations with time of heart accumulation, heart/lung ratios and heart/liver ratios for the ^99mTc(N) heterocomplexes of the present invention.

CCOCCN1CC[P](CCCOC)(CCCOC)[99Tc+]2(#[N])([S]C(N(CCOCC)C(C)C)=[S]2)[P](CCCOC)(CCCOC)CC1 [[^99mTc(N) (PNP5) (ISOET)]^+]
Biodistribution in rats: Adrenal glands (2 min post injection): 2.24 % dose/g
Biodistribution in rats: Blood (2 min post injection): 0.14 % dose/g
Biodistribution in rats: Brain (2 min post injection): 0.02 % dose/g
Biodistribution in rats: Heart (2 min post injection): 2.33 % dose/g
Biodistribution in rats: Intestine (2 min post injection): 3.68 % dose/g
Biodistribution in rats: Kidneys (2 min post injection): 7.19 % dose/g
Biodistribution in rats: Liver (2 min post injection): 2.79 % dose/g
Biodistribution in rats: Lungs (2 min post injection): 0.74 % dose/g
Biodistribution in rats: Muscle (2 min post injection): 0.16 % dose/g
Biodistribution in rats: Spleen (2 min post injection): 1.11 % dose/g
Biodistribution in rats: Submax. glands (2 min post injection): 0.95 % dose/g
Biodistribution in rats: Adrenal glands (10 min (Table 16)): 2.22 % dose/g
Biodistribution in rats: Blood (10 min (Table 16)): 0.93 % dose/g
Biodistribution in rats: Brain (10 min (Table 16)): 0.10 % dose/g
Biodistribution in rats: Heart (10 min (Table 16)): 3.35 % dose/g
Biodistribution in rats: Intestine (10 min (Table 16)): 3.70 % dose/g
Biodistribution in rats: Kidneys (10 min (Table 16)): 5.40 % dose/g
Biodistribution in rats: Liver (10 min (Table 16)): 0.95 % dose/g
Biodistribution in rats: Lungs (10 min (Table 16)): 2.44 % dose/g
Biodistribution in rats: Muscle (10 min (Table 16)): 0.13 % dose/g
Biodistribution in rats: Spleen (10 min (Table 16)): 1.16 % dose/g
Biodistribution in rats: Submax. glands (10 min (Table 16)): 0.92 % dose/g
Biodistribution in rats: Adrenal glands (10 min post injection): 2.70 % dose/g
Biodistribution in rats: Blood (10 min post injection): 0.04 % dose/g
Biodistribution in rats: Brain (10 min post injection): 0.02 % dose/g
Biodistribution in rats: Heart (10 min post injection): 2.91 % dose/g
Biodistribution in rats: Intestine (10 min post injection): 7.12 % dose/g
Biodistribution in rats: Kidneys (10 min post injection): 5.98 % dose/g
Biodistribution in rats: Liver (10 min post injection): 1.54 % dose/g
Biodistribution in rats: Lungs (10 min post injection): 0.73 % dose/g
Biodistribution in rats: Muscle (10 min post injection): 0.22 % dose/g
Biodistribution in rats: Spleen (10 min post injection): 1.28 % dose/g
Biodistribution in rats: Submax. glands (10 min post injection): 1.40 % dose/g
Biodistribution in rats: Adrenal glands (20 min post injection): 2.70 % dose/g
Biodistribution in rats: Blood (20 min post injection): 0.02 % dose/g
Biodistribution in rats: Brain (20 min post injection): 0.01 % dose/g
Biodistribution in rats: Heart (20 min post injection): 2.86 % dose/g
Biodistribution in rats: Intestine (20 min post injection): 7.44 % dose/g
Biodistribution in rats: Kidneys (20 min post injection): 5.31 % dose/g
Biodistribution in rats: Liver (20 min post injection): 1.09 % dose/g
Biodistribution in rats: Lungs (20 min post injection): 0.50 % dose/g
Biodistribution in rats: Muscle (20 min post injection): 0.20 % dose/g
Biodistribution in rats: Spleen (20 min post injection): 1.20 % dose/g
Biodistribution in rats: Submax. glands (20 min post injection): 1.85 % dose/g
Biodistribution in rats: Adrenal glands (30 min post injection): 2.72 % dose/g
Biodistribution in rats: Blood (30 min post injection): 0.02 % dose/g
Biodistribution in rats: Brain (30 min post injection): 0.01 % dose/g
Biodistribution in rats: Heart (30 min post injection): 2.47 % dose/g
Biodistribution in rats: Intestine (30 min post injection): 8.36 % dose/g
Biodistribution in rats: Kidneys (30 min post injection): 5.28 % dose/g
Biodistribution in rats: Liver (30 min post injection): 1.06 % dose/g
Biodistribution in rats: Lungs (30 min post injection): 0.45 % dose/g
Biodistribution in rats: Muscle (30 min post injection): 0.13 % dose/g
Biodistribution in rats: Spleen (30 min post injection): 0.35 % dose/g
Biodistribution in rats: Submax. glands (30 min post injection): 1.51 % dose/g
Biodistribution in rats: Adrenal glands (60 min post injection): 2.23 % dose/g
Biodistribution in rats: Blood (60 min post injection): 0.02 % dose/g
Biodistribution in rats: Brain (60 min post injection): 0.00 % dose/g
Biodistribution in rats: Heart (60 min post injection): 2.74 % dose/g
Biodistribution in rats: Intestine (60 min post injection): 8.29 % dose/g
Biodistribution in rats: Kidneys (60 min post injection): 5.12 % dose/g
Biodistribution in rats: Liver (60 min post injection): 0.43 % dose/g
Biodistribution in rats: Lungs (60 min post injection): 0.35 % dose/g
Biodistribution in rats: Muscle (60 min post injection): 0.15 % dose/g
Biodistribution in rats: Spleen (60 min post injection): 0.73 % dose/g
Biodistribution in rats: Submax. glands (60 min post injection): 1.79 % dose/g
Biodistribution in rats: Adrenal glands (120 min post injection): 2.98 % dose/g
Biodistribution in rats: Blood (120 min post injection): 0.01 % dose/g
Biodistribution in rats: Brain (120 min post injection): 0.01 % dose/g
Biodistribution in rats: Heart (120 min post injection): 2.44 % dose/g
Biodistribution in rats: Intestine (120 min post injection): 8.00 % dose/g
Biodistribution in rats: Kidneys (120 min post injection): 4.50 % dose/g
Biodistribution in rats: Liver (120 min post injection): 0.23 % dose/g
Biodistribution in rats: Lungs (120 min post injection): 0.22 % dose/g
Biodistribution in rats: Muscle (120 min post injection): 0.19 % dose/g
Biodistribution in rats: Spleen (120 min post injection): 0.41 % dose/g
Biodistribution in rats: Submax. glands (120 min post injection): 1.38 % dose/g

CCOCCC[P]1(CCCOCC)CCN(CCOCC)CC[P](CCCOCC)(CCCOCC)[99Tc+]12(#[N])[S]C(N(CCOCC)CCOCC)=[S]2 [[^99mTc(N) (PNP6) (DBODC)^+]]
Heart/liver ratio in biodistribution (0 min): 0.63
Heart/lung ratio in biodistribution (0 min): 0.58
Heart/liver ratio in biodistribution (2 min): 0.21
Heart/lung ratio in biodistribution (2 min): 0.99
Heart/liver ratio in biodistribution (10 min): 0.18
Heart/lung ratio in biodistribution (10 min): 1.26
Heart/liver ratio in biodistribution (20 min): 0.18
Heart/lung ratio in biodistribution (20 min): 1.48
Heart/liver ratio in biodistribution (30 min): 0.23
Heart/lung ratio in biodistribution (30 min): 1.75
Heart/liver ratio in biodistribution (60 min): 0.31
Heart/lung ratio in biodistribution (60 min): 2.29
Heart/liver ratio in biodistribution (120 min): 0.51
Heart/lung ratio in biodistribution (120 min): 3.91
